Test results published in PMC8085982 (Microbial Biotechnology, 2021).
Like-named read-outs stand apart in the source and are kept apart here.

How the values were obtained:
Pa5930 laccase [1] = assay: initial rates, OD420, sigmoidal; assay type: biochemical, Pediococcus acidilactici; settings: 50 mM sodium citrate pH 3.4, 24 °C; sigmoidal kinetics
Pp4816 laccase [2] = assay: initial rates, OD420, sigmoidal; assay type: biochemical, Pediococcus pentosaceus; settings: 50 mM sodium citrate pH 3.4, 24 °C; sigmoidal kinetics
Pa5930 laccase [3] = settings: 50 mM Tris-HCl pH 7.2, 24 °C
Pp4816 laccase [4] = settings: 50 mM Tris-HCl pH 7.2, 24 °C

Km (Pa5930 laccase [1]) [µM]	Km (Pp4816 laccase [2]) [µM]	Km (Pa5930 laccase [3]) [µM]	Km (Pp4816 laccase [4]) [µM]	SMILES
330 ± 40	310 ± 30			CCn1c(=NN=c2sc3cc(S(=O)(=O)O)ccc3n2CC)sc2cc(S(=O)(=O)O)ccc21 [ABTS, 2,2‐azino‐bis(3‐ethylbenzothiazoline‐6‐sulfonic acid)]
		3110 ± 850	6330 ± 1320	COc1cccc(OC)c1O [2,6-DMP, 2,6‐dimethoxyphenol]
